The experiment concerns HIV in the HTLV-1 transformed cell line MT-4. The experiment in a line: MT4 assay (antiviral HIV activity). The format is cell-based. Conditions: MT-4 cells, readout at 96 hours with cell titer glo, 10 point dose response. The protocol:
Antiviral HIV activity and cytotoxicity values for compounds of the invention from Table 1 were measured in parallel in the HTLV-1 transformed cell line MT-4 based on the method previously described (Hazen et al., 2007, In vitro antiviral activity of the novel, tyrosyl-based human immunodeficiency virus (HIV) type 1 protease inhibitor brecanavir (GW640385) in combination with other antiretrovirals and against a panel of protease inhibitor-resistant HIV (Hazen et al., “In vitro antiviral activity of the novel, tyrosyl-based human immunodeficiency virus (HIV) type 1 protease inhibitor brecanavir (GW640385) in combination with other antiretrovirals and against a panel of protease inhibitor-resistant HIV”, Antimicrob. Agents Chemother. 2007, 51: 3147-3154; and Pauwels et al., “Sensitive and rapid assay on MT-4 cells for the detection of antiviral compounds against the AIDS virus”, J. of Virological Methods 1987, 16: 171-185).
Luciferase activity was measured 96 hours later by adding a cell titer glo (Promega, Madison, Wis.). Percent inhibition of cell protection data was plotted relative to no compound control. Under the same condition, cytotoxicity of the compounds was determined using cell titer Glo™ (Promega, Madison, Wis.). IC50s were determined from a 10 point dose response curve using 3-4-fold serial dilution for each compound, which spans a concentration range >1000 fold. […]
On the technique in general: ATP-based viability assays read luminescence as a measure of living cells.

Turning to `Cc1c(-c2c(C)c3c(c(C)c2[C@H](OC(C)(C)C)C(=O)O)CN(C(=O)c2cccc(F)c2)[C@@H]3C)cc(F)c2c1CCCO2` (atropisomer, axis not shown; (M)) [Example 1], the IC50 (in general, the concentration that inhibits the measured activity by half) stood at 1.7 nM.

(Values after patent US20200255411A1, “ISOINDOLINE DERIVATIVES” (VIIV HEALTHCARE UK LIMITED, priority 2015, published 2020).)
